This is an account of results in patent publication US20230339902A1, “TRICYCLIC LIGANDS FOR DEGRADATION OF IKZF2 OR IKZF4” (C4 Therapeutics, Inc., priority 2020, published 2023).

Assay [1] has as its target T1, IKZF2 (Homo sapiens, UniProt Q96SW2+Q9UKS7).
T1 construct: endogenously expressing IKZF2 with HiBiT fusion tag via CRISPR; host or cells: JURKAT.21 (IKZF2-HiBiT), CRISPR knock-in
Put plainly: IKZF2 degradation assay, HiBiT method (Nano-Glo HiBiT Lytic Assay). The assay is classed as cell-based. The settings on record: JURKAT.21 (IKZF2-HiBiT) cells. From the text:
Example 61 IKZF2 Degradation Assay
RPMI 1640 Medium without phenol red and fetal bovine serum (FBS) were purchased from Gibco (Grand Island, NY, USA). Nano-Glo® HiBiT Lytic Assay System was purchased from Promega (Madison, WI, USA). JURKAT.21 (IKZF2-HiBiT) cell line, endogenously expressing IKZF2 with HiBiT fusion tag via CRISPR, was purchasing from Synthego (Menlo Park, CA, USA). Cell culture flasks and 384-well microplates were acquired from VWR (Radnor, PA, USA).
IKZF2 Degradation Analysis
(§1) IKZF2 degradation was determined based on quantification of luminescent signal using Nano-Glo® HiBiT Lytic Assay kit. Test compounds were added to the 384-well plate from a top concentration of 10 µM with 11 points, half log titration in duplicates. JURKAT.216 cells were added into 384-well plates at a cell density of 5000 cells per well. The plates were kept at 37° C. with 5% CO2 for 6 or 24 hours. The cells treated in the absence of the test compound were the negative control and the cells without Nano-Glo® HiBiT Lytic reagent were the positive control. After 6-hour or 24-hour incubation, Nano-Glo® HiBiT Lytic Assay reagents were added to the cells. Luminescence was acquired on EnVision™ Multilabel Reader (PerkinElmer, Santa Clara, CA, USA).
On the technique in general: With HiBiT, luminescence reflects the tagged protein that the partner subunit can reach.

For assay [2], the target named is T2, GSPT1 (Homo sapiens, UniProt P15170+Q96SW2).
T2 construct: endogenously expressing GSPT1 with HiBiT fusion tag via CRISPR; endogenous in cells; host or cells: 293T.114 (HiBiT-GSPT1), CRISPR knock-in, generated in house
T2 sequence (P15170 whole entry, the tested form may be a part): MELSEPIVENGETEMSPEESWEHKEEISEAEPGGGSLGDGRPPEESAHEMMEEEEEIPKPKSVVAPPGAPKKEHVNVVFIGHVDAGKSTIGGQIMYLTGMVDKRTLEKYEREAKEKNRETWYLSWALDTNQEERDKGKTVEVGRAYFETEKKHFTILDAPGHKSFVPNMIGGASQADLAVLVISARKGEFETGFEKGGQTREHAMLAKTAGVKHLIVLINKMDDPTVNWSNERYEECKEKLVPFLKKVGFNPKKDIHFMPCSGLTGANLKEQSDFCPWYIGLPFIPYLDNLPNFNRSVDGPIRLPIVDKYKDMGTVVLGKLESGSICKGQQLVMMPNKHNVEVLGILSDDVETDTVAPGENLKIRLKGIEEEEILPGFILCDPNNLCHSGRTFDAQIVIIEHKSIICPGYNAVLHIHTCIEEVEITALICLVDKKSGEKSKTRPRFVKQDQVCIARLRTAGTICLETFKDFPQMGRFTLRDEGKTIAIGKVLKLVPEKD
T2 sequence (Q96SW2 whole entry, the tested form may be a part): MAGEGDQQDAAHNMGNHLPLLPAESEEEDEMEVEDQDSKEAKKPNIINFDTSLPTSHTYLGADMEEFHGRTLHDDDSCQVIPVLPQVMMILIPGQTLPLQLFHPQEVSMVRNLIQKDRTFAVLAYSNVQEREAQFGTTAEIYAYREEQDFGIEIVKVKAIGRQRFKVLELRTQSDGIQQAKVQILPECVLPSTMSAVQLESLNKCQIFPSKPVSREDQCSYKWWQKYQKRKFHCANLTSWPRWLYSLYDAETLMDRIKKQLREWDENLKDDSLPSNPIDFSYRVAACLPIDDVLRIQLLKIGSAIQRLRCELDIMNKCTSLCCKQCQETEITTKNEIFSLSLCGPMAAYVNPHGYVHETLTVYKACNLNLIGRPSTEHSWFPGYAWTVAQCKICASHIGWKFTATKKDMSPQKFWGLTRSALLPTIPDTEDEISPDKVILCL
T2 sequence (Q16531 whole entry partner, the tested form may be a part): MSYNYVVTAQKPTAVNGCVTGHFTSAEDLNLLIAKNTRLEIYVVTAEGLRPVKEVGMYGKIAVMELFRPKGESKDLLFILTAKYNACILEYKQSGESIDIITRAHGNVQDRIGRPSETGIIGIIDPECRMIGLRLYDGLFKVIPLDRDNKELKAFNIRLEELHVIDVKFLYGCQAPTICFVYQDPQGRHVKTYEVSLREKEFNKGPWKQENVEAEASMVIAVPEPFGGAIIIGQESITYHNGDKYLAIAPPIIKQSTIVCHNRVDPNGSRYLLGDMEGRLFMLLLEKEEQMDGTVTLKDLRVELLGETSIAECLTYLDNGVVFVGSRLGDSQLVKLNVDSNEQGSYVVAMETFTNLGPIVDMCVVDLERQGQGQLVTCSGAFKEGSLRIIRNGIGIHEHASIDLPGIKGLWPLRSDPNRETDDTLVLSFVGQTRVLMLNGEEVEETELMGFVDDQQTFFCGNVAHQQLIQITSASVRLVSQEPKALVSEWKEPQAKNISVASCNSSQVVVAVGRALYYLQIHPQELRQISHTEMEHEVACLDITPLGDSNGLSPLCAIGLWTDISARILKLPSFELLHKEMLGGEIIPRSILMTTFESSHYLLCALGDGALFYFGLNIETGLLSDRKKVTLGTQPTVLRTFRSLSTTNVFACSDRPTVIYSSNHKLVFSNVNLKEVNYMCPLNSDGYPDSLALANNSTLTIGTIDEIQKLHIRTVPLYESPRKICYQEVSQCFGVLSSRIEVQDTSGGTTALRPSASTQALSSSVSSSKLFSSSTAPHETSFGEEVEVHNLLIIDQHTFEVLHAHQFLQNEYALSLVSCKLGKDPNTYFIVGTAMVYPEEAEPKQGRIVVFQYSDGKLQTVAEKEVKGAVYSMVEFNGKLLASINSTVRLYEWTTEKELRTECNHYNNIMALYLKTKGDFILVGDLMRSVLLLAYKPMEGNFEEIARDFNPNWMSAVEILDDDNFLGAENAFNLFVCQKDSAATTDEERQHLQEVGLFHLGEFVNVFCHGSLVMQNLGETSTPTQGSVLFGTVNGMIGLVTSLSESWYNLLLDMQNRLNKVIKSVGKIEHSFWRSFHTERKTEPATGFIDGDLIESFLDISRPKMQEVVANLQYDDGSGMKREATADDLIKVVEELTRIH
Put plainly: GSPT1 degradation assay, HiBiT method (Nano-Glo HiBiT Lytic Assay). Format: cell-based. Particulars: 293T.114 (HiBiT-GSPT1) cells, 6 hours. The method, then: Example 62 GSPT1 Degradation Assay
DMEM no-phenol red medium and fetal bovine serum (FBS) were purchased from Gibco (Grand Island, NY, USA). Nano-Glo® HiBiT Lytic Assay System was purchased from Promega (Madison, WI, USA). 293T.114 (HiBiT-GSPT1) cell line was generated in house, endogenously expressing GSPT1 with HiBiT fusion tag via CRISPR. Cell culture flasks and 384-well microplates were acquired from VWR (Radnor, PA, USA).
GSPT1 Degradation Analysis
as §1, with “GSPT1” for “IKZF2”, “293T.114” for “JURKAT.216”, “6000” for “5000”, “6” for “6 or 24”, “6-hour” for “6-hour or 24-hour”, “designated wells.” for “cells.”

[3] abbreviates: 6 hours, read-out: HiBiT-Degradation JURKAT.21 IKZF2 6 hours DC50.
The mark [4] stands for this setting: 6 hours, read-out: HiBiT-Degradation JURKAT.21 IKZF2 6 hours Emax.

Read-outs that look alike come from different tables or passages of the source.

T1 sequence (Q9UKS7 whole entry, the tested form may be a part): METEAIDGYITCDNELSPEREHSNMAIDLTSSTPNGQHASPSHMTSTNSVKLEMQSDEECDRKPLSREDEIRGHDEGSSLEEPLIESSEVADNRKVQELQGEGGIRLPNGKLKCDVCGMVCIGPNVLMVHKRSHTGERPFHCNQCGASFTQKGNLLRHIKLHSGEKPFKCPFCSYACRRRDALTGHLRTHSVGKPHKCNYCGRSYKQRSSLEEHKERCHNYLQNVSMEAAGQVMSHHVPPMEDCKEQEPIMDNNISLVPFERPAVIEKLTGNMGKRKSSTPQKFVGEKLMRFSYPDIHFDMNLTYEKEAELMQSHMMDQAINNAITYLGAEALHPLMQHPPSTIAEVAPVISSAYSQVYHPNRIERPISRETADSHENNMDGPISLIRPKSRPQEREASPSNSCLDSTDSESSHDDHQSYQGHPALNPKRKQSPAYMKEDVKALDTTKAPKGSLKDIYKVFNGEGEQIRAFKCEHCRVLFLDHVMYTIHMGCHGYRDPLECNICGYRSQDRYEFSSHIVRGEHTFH
T1 sequence (Q96SW2 whole entry, the tested form may be a part): as the sequence (Q96SW2 whole entry, the tested form may be a part) above
T1 sequence (Q16531 whole entry partner, the tested form may be a part): as the sequence (Q16531 whole entry partner, the tested form may be a part) above

Regarding `CN1CCN(c2ccc3c4c(ccnc24)N(C2CCC(=O)NC2=O)C3=O)CC1` (stereo not drawn) [Compound 121], the DC50 in assay [1] (setting [3]) and in assay [2] was over 10 µM in each case. Moreover, the values for the Emax in assay [1] (setting [4]) and in assay [2] were over 95% and 60 to 95%, respectively.

For `CC(NC(=O)c1ccc2c3c(ccnc13)N(C1CCC(=O)NC1=O)C2=O)c1ccccc1` (stereo not drawn) [Compound 122, 27-(2,6-dioxo-3-piperidyl)-20-oxo-N-(1-phenylethyl)-24,27-diazatricyclododeca-6,8(15),9(24),13(16),14(17)-pentaene-14-carboxamide], the DC50 in assay [1] (setting [3]) and in assay [2] was over 10 µM each time. Moreover, the maximal effect (Emax) in assay [1] (setting [4]) and in assay [2] was 60 to 95% each time.

Consider `COc1ncc(CN2CCC(c3ccc4c5c(ccnc35)N(C3CCC(=O)NC3=O)C4=O)CC2)cn1` (stereo not drawn) [Compound 127, 3-[14-[1-[(2-methoxypyrimidin-5-yl)methyl]-4-piperidyl]-24-oxo-26,31-diazatricyclododeca-1(14),2(15),3(16),4(26),18-pentaen-31-yl]piperidine-2,6-dione], for which the DC50 in assay [1] (setting [3]) and in assay [2] was over 10 µM each time. Further, the Emax (as a rule, the maximal effect, on the per cent scale that the assay sets) was 60 to 95% in assay [1] (setting [4]) and over 95% in assay [2].

For `O=C1CCC(N2C(=O)c3ccc(C4CCN(Cc5cccc(S(=O)(=O)N6CCOCC6)c5)CC4)c4nccc2c34)C(=O)N1` (stereo not drawn) [Compound 128, 3-[21-[1-[(3-morpholinosulfonylphenyl)methyl]-4-piperidyl]-29-oxo-31,35-diazatricyclododeca-3(21),4(22),5(23),6(31),24-pentaen-35-yl]piperidine-2,6-dione], the DC50 (in general, the concentration at which degradation of the target reaches its halfway point) was over 10 µM in assay [1] (setting [3]); over 10 µM in assay [1] (24 hours, read-out: HiBiT-Degradation JURKAT.21 IKZF2 24 hours DC50); over 10 µM in assay [2]. Moreover, the Emax in assay [1] (setting [4]) was 60 to 95%; in assay [1] (24 hours, read-out: HiBiT-Degradation JURKAT.21 IKZF2 24 hours Emax) it was 60 to 95%; in assay [2], 60 to 95%.
